Patent publication US11890287B2, “Therapeutic compounds and compositions for treating social disorders and substance use disorders” (Kinoxis Therapeutics Pty Ltd, priority 2015, dated 2024)

Legend:
human OT receptor = human OT receptor (Homo sapiens, UniProt P30559); test: Orthosteric binding against [3H]OT
Wistar rats = test: Biotelemetry of body temperature and heart rate; format: in vivo, rat
Method: FIG. 7—The monitored body temperatures of Wistar rats administered vehicle, SOC-1 (5 mg/kg), or SOC-1 and the V1A receptor antagonist SR49059 (10 mg/kg).
FIG. 8—The monitored heart rates for Wistar rats administered vehicle, SOC-1 (5 mg/kg), or SOC-1 and the V1A receptor antagonist SR49059 (10 mg/kg).
However, the rats were not ataxic or comatose, they were simply in a relaxed quiescent state. […] Effects on body temperature and other behaviours are not blocked by pre-treatment with the vasopressin V1A receptor antagonist SR49059 (10 mg/kg). […] The data in these two studies was gathered with DataSciences International biotelemetry system.

male Sprague Dawley rats [1] = test: Methamphetamine IVSA under a progressive ratio schedule; format: in vivo, rat
Method: Following recovery from surgery, rats were able to self-administer intravenous METH during 2 hour sessions. At the beginning of each session, catheters were flushed with 0.1 ml heparinised saline (10 IU/ml) and were connected to the infusion line. Lever extension and house light illumination indicated the initiation of the session. […] Depression of the active lever delivered a 3 s infusion of METH (0.1 mg/kg/infusion, 50 μL), illuminated the cue light, and extinguished the house light. The house light was extinguished for a 20 second time period during which depression of the active lever had no programmed consequences. […] At the end of each session, the infusion line was disconnected and catheters were flushed with 0.2 ml of cephazolin sodium in heparinized saline solution.
Rats acquired self-administration of METH during daily 2 hour fixed ratio 1 scheduled sessions. To avoid overdose, each rat was limited to a maximum of 60 infusions per session. Rats continued under the FR-1 schedule until stable responding was met as indicated by less than 10% variability in number of infusions and active lever presses compared to the day prior. Stable self-administration baselines were achieved within 10 days, after which rats advanced to the progressive ratio schedule.
Under the progressive ratio (PR) schedule, METH infusions were delivered according to the ratio: ((5×(e^reinforcer #×0.2)−5). The number of active lever presses that were required to receive one METH infusion increased according to the following sequence: 1, 2, 4, 6, 9, 12, 15, 20, 25, 32, 40, 50, 62, 77, 95, 118, 145, 178, 219, 268 (Cornish et al., 2005). The daily PR sessions were completed after 2 hours or if an infusion had not been self-administered for 60 minutes. Rats continued with PR sessions until lever pressing stabilised, which was determined by less than 10% variability in number of infusions and active lever presses for two consecutive days. Lever pressing stabilised after 7 days. During this time, the rats were given a sham saline i.p. (1 ml/kg) injection prior to the session. […]

male Sprague Dawley rats [2] = test: Methamphetamine-primed reinstatement; format: in vivo, rat
5-HT2B = biological target: T1, 5-HT2B (Homo sapiens, UniProt P41595); test: PDSP orthosteric binding screen
T1 construct: Psychoactive Drug Screening Program (PDSP)
T1 sequence (P41595 whole entry, species assumed): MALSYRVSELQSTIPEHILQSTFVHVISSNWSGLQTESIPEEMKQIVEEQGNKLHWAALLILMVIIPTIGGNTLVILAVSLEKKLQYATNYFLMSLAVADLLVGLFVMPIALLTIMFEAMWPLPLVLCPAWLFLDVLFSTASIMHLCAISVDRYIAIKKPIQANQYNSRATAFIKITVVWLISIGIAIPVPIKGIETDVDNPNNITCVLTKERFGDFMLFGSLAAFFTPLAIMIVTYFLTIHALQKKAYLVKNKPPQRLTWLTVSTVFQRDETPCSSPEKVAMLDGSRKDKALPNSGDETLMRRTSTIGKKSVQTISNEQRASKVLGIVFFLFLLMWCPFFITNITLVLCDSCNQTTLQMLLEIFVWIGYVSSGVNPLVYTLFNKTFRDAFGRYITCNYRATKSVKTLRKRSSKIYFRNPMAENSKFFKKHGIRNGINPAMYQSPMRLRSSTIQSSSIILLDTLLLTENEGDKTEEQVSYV
Source text: (§1) Comprehensive screening of affinity for the orthosteric binding sites for numerous receptors from the Psychoactive Drug Screening Program (PDSP) have failed as yet to identify a target, despite the powerful OT-like behavioural effects of the compound evident in vivo and the clear activation of brain OT systems evident from our Fos data.

5-ht1e = biological target: T2, 5-ht1e (Homo sapiens, UniProt P28566); test: PDSP orthosteric binding screen
T2 construct: Psychoactive Drug Screening Program (PDSP)
T2 sequence (P28566 whole entry, species assumed): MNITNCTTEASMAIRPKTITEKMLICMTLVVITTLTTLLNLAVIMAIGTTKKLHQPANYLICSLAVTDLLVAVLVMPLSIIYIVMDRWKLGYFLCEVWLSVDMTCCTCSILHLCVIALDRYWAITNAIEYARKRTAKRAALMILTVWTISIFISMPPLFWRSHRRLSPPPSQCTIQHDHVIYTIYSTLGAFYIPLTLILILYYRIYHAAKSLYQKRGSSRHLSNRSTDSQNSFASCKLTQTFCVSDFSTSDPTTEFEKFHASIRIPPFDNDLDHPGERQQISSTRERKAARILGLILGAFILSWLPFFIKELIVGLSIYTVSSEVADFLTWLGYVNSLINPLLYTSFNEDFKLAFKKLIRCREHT
Source text: as §1

KOR = biological target: T3, KOR (Homo sapiens, UniProt P41145); test: PDSP orthosteric binding screen
T3 construct: Psychoactive Drug Screening Program (PDSP)
T3 sequence (P41145 whole entry): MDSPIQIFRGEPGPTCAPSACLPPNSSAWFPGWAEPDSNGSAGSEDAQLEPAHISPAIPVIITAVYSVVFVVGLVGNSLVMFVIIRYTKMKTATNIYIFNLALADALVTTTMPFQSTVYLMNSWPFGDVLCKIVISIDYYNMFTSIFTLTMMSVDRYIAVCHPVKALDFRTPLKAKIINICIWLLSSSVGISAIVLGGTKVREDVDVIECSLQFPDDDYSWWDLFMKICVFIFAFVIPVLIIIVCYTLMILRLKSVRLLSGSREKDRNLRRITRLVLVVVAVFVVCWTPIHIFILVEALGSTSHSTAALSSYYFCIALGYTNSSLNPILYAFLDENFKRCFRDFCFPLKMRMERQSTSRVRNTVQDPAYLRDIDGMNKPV
Source text: as §1

M2 = biological target: T4, M2 (Homo sapiens, UniProt P08172); test: PDSP orthosteric binding screen
T4 construct: Psychoactive Drug Screening Program (PDSP)
T4 sequence (P08172 whole entry): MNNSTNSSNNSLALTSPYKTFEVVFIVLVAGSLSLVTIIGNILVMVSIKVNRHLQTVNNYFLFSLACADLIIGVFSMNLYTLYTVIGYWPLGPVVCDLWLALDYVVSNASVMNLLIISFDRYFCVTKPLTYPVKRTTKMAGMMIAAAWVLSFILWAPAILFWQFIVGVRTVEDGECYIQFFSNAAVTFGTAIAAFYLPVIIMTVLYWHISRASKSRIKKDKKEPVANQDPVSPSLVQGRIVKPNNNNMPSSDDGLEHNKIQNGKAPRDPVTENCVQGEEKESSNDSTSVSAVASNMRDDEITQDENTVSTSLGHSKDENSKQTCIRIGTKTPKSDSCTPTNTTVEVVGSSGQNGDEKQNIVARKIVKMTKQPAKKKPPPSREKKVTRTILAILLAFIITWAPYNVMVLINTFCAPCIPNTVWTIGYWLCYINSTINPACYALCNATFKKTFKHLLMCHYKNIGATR
Source text: as §1

M3 = biological target: T5, M3 (Homo sapiens, UniProt P20309); test: PDSP orthosteric binding screen
T5 construct: Psychoactive Drug Screening Program (PDSP)
T5 sequence (P20309 whole entry): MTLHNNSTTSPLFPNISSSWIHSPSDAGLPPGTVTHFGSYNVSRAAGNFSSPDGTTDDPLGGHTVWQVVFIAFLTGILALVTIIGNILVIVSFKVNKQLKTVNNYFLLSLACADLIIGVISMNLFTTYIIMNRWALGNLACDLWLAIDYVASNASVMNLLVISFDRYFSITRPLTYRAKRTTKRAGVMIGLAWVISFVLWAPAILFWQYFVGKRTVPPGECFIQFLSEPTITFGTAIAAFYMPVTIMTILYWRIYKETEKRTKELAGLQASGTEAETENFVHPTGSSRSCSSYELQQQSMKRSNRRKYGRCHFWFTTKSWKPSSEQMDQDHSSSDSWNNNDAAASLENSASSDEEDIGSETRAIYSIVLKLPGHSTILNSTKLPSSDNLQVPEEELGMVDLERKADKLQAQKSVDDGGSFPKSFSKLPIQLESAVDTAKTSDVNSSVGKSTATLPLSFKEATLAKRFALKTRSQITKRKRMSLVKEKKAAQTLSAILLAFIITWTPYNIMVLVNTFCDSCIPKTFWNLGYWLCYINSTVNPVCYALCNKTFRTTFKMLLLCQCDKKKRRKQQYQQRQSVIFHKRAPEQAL
Source text: as §1

M4 = biological target: T6, M4 (Homo sapiens, UniProt P08173); test: PDSP orthosteric binding screen
T6 construct: Psychoactive Drug Screening Program (PDSP)
T6 sequence (P08173 whole entry): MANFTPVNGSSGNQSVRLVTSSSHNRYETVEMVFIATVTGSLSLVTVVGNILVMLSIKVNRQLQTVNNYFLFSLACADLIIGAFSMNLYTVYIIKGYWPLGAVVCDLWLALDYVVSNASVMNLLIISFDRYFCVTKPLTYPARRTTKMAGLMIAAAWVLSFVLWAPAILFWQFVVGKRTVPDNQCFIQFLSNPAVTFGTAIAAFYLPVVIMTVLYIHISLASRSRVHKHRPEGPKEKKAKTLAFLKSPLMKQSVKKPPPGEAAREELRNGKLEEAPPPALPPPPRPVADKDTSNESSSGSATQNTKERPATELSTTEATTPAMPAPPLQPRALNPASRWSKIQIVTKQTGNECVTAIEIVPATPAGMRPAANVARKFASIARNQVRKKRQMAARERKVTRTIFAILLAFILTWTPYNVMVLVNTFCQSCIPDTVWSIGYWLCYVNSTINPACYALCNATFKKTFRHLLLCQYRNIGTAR
Source text: as §1

PBR = biological target: T7, PBR (Rattus norvegicus, UniProt P16257); test: PDSP orthosteric binding screen
T7 construct: Psychoactive Drug Screening Program (PDSP)
Source text: as §1

Sigma 2 = test: PDSP orthosteric binding screen
Source text: as §1

human OT receptor, sequence (P30559 whole entry): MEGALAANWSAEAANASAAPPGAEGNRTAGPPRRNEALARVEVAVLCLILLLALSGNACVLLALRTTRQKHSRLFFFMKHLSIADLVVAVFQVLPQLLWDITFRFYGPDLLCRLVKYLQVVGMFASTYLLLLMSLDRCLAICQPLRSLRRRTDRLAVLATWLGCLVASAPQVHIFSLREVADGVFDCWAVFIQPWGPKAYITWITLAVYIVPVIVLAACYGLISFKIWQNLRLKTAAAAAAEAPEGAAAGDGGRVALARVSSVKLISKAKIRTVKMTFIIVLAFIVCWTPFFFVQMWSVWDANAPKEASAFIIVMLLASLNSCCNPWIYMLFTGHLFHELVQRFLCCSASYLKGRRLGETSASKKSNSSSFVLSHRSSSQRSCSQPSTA

Compound: Cl.Cn1ncc2c1Nc1ccccc1NC2 [SOC-1]
- IC50 (human OT receptor): > 10 µM
- body temperature (Wistar rats; 5 mg/kg): modest hypothermia
- heart rate (Wistar rats; 5 mg/kg): no effect
- hypothermia at higher ambient temperatures (Wistar rats; 30° C.): abolished
- active lever pressing under a PR schedule (male Sprague Dawley rats [1]; 5 mg (p=0.043) and 10 mg/kg (p=0.007) IP vs vehicle): significantly reduced active lever pressing
- infusion breakpoint (male Sprague Dawley rats [1]; 10 mg/kg IP, p=0.001 vs vehicle): significant reduction
- locomotor activity (male Sprague Dawley rats [1]; 10 mg/kg IP, p=0.005 vs vehicle): significant reduction
- lever-pressing activity, SOC-1 on its own (SOC-1+vehicle) (male Sprague Dawley rats [2]; 10 mg/kg, vs extinction day prior, p=0.147): did not significantly alter lever-pressing activity
- locomotor activity across reinstatement sessions (male Sprague Dawley rats [2]; 2.5 (p=0.006), 5 and 10 mg/kg (p<0.005) prior to methamphetamine prime): significantly lower
- active lever pressing produced by a methamphetamine prime (male Sprague Dawley rats [2]; 2.5, 5 and 10 mg/kg IP, each p<0.005 vs vehicle): significantly reduced active lever pressing
- locomotor activity, sole administration of SOC-1 (male Sprague Dawley rats [2]; vs previous extinction session, p=0.472): did not significantly change locomotor activity
- affinity for 5-HT2B (5-HT2B): no notable affinity
- affinity for 5-ht1e (5-ht1e): no notable affinity
- affinity for KOR (KOR): no notable affinity
- affinity for M2 (M2): no notable affinity
- affinity for M3 (M3): no notable affinity
- affinity for M4 (M4): no notable affinity
- affinity for PBR (PBR): no notable affinity
- affinity for Sigma 2 (Sigma 2): no notable affinity
